Test results: US5312833A, “Method of inhibiting tumor growth using xanthocillin X dimethylether” (Meiji Seika Kaisha, Ltd., priority 1990, dated 1994)
Values after ≈ are worked out from the molar mass of the structure shown.

What was measured:
[1] = Acute toxicity in Balb/c mice; details: mouse, in vivo, ip, injected into the peritoneal cavity, 7-week-old females, survival over 2 weeks, suspension in 1% CMC
Experimental: Xanthocillin X dimethylether (by way of the same suspension as used in Example 3) was injected into the peritoneal cavity of Balb/c mice (7-week-old females). The animals were reared for the next 2 weeks and their survival was recorded.

B16 = test: In vitro cytotoxicity, MTT assay, B16; assay type: cell-based; details: Mus musculus, 72 h, 3 days incubation, read-out: IC50 (drug concentration to kill 50% of the cells)
Experimental: (§1) The effect of a preparation containing xanthocillin X dimethylether on cancer cells was determined by an in vitro test. For a medium, the Modified Dulbecco Minimum Essential Medium combined with 10% fetal serum was placed in a culture dish. The cytotoxic activity was observed on various cancer cells (set forth in Table 1 below) that were serially cultured in this medium in a CO2 incubator. First, the respective cancer cells were suspended in the aforementioned culture medium at a concentration of 5×10^4 cells/ml. Then 135 μl of the suspension was added to a micro-titer plate having 96 wells. Next, 15 μl of the test compound solution was added, and the plates were incubated in CO2 for 3 days. The survival of the cells after the incubation period was determined by the MTT assay (Igaku no Ayumi, Vol. 128, pages 733-735, 1984).

cancer cells = test: In vitro cytotoxicity on various cancer cells (MTT assay), summary; assay type: cell-based; details: as indicated in Table 1
Experimental: as §1

Meth-A = test: In vitro cytotoxicity, MTT assay, Meth-A; assay type: cell-based, murine; details: Mus musculus, 72 h, 3 days incubation, read-out: IC50 (drug concentration to kill 50% of the cells)
Experimental: as §1

Meth-A solid tumor = test: Suppression of growth of Meth-A solid tumor in Balb/c mice; assay type: in vivo
Experimental: 0.1 ml of 10^7 cells/ml of murine fibrosarcoma Meth-A (ascites) were inoculated subcutaneously into Balb/c mice (6-week-old, females) and the test agent was injected intraperitoneally into the mice on the next day.
The test compound had been thoroughly pulverized in a mortar, suspended in 1% carboxymethylcellulose (CMC), and mixed well using ultrasonic. The test compound was administered once daily for 4 consecutive days. Following 2 weeks of rearing, the tumor on the back was excised and its weight was recorded. The percentage by which tumor development was suppressed was computed as follows: {(tumor weight of the control-tumor weight of the test group)/tumor weight of the control group}×100.

P388 = test: In vitro cytotoxicity, MTT assay, P388; assay type: cell-based; details: Mus musculus, 72 h, 3 days incubation, read-out: IC50 (drug concentration to kill 50% of the cells)
Experimental: as §1

prostaglandin synthesis = details: literature; cited from earlier work
[2] = system: Lewis carcinoma of the lung; test: In vitro cytotoxicity, MTT assay, Lewis carcinoma of the lung; assay type: cell-based; details: 72 h, 3 days incubation, read-out: IC50 (drug concentration to kill 50% of the cells)
Experimental: as §1

With `[C-]#[N+]C(=Cc1ccc(OC)cc1)C(=Cc1ccc(OC)cc1)[N+]#[C-]` [xanthocillin X dimethylether] the LD50 at 336 h [1] was over 120 mg/kg, the IC50 (B16) was 0.45 µg/mL (≈ 1.42 µM) and the “cytotoxicity to a series of cancer cells (in words)” value (cancer cells) was “cytotoxic to a series of cancer cells”. For the same molecule, the IC50 (Meth-A) was 0.71 µg/mL (≈ 2.24 µM), the “Percentage suppression of tumor growth” value (Meth-A solid tumor; 30 mg/kg/day intraperitoneally, once daily for 4 consecutive days, after 2 weeks, computed from tumor weights versus control (1% CMC)) was 88.5 Percentage and the Tumor weight (Meth-A solid tumor; 30 mg/kg/day intraperitoneally, once daily for 4 consecutive days, tumor excised after 2 weeks, mean ± standard deviation, control 0.96 ± 0.60 g) was 0.11 ± 0.10 g. For the same molecule, the “suppression of growth of Meth-A solid tumors (in words)” value (Meth-A solid tumor; as shown in Table 2) was “markedly suppressed the growth of Meth-A solid tumors”, the IC50 (P388) was 0.67 µg/mL (≈ 2.12 µM) and the “inhibition of prostaglandin synthesis (in words)” value (prostaglandin synthesis) was “specific inhibitor of prostaglandin synthesis”. For the same molecule, the IC50 [2] was 0.46 µg/mL (≈ 1.45 µM).
